Test results published in patent US9782412B2, “Preventive and/or therapeutic agent of immune disease” (TAIHO PHARMACEUTICAL CO., LTD., priority 2015, dated 2017).
Read-outs that look alike come from different tables or passages of the source.

Assays:
RBL-2H3 cells = test: Inhibitory activity against allergic reaction using RBL-2H3 cells (PGD2 production); assay type: cell-based, rat; settings: anti-DNP IgE / DNP-BSA, read-out: PGD2 production inhibitory concentration (IC50, (nM))
Protocol: Rat basophilic leukemia cells, RBL-2H3, were suspended in MEM medium containing 10% FBS, and then the cells were inoculated in a culture plate, and cultured in a CO2 incubator (Sanyo Electric Biomedical Co., Ltd.) at 37° C. for 12 hours. After a culture supernatant was removed and the cells were washed, an anti-DNP-mouse IgE (Alpha Diagnostic Inc.) solution was added thereto, and the cells were cultured in the CO2 incubator for 1 hour. After a culture supernatant was removed and the cells were washed, an MEM medium was added thereto.
Further, a DNP-BSA (LSL, Inc.) solution was added thereto and the cells were cultured in the CO2 incubator for 15 minutes. A culture supernatant was collected and reacted, with PGD2-MOX EIA kit (Cayman Chemical Inc.) on the basis of the protocol attached thereto, and absorbance was measured by SUNRISE RAINBOW THERMO (TECAM Inc.).

[1] = Influence on body weight of SD rat by repeated administration; assay type: in vivo
Protocol: The rats were grouped as follows, with four animals in each group, by a random classification method such that the average body weights of the respective groups would be almost uniform (Day 1).
The body weight change (BWC) was used as an index indicating the systemic toxicity caused by the compound administration. The BWC was calculated by the following formula. BWC (%)=([(Rat body weight on 14 days after the administration)−(Rat body weight at the time of grouping)]/(Rat body weight at the time of grouping))×100
The relative body weight change ratios in the each compound-administered groups were calculated by the following formula when the BWC in the vehicle-administered group was set as 1, and the results are indicated in Table 25. Relative body weight change ratio (%)=(BWC in the compound-administered group)/BWC in the vehicle-administered group)×100

[2] = tested on: mouse collagen-induced arthritis model; test: Mouse collagen-induced arthritis model (therapeutic effect), Test Example 7; assay type: in vivo; settings: once-a-day oral for 15 days from sixth day after additional immunization, FIG. 2
Protocol: (§1) Seven-week-old male/DBA/1 mice (CHARLES RIVER LABORATORIES JAPAN, INC.) were intracutaneously injected in the dorsum with 100 μL/body of an equal amount-mixed solution (emulsion) of a 4 mg/mL bovine type 2 collagen solution (Collagen Research Center) and a complete freund's adjuvant (DIFCO Inc.) (Initial immunization). After 21 days therefrom, the mice were intracutaneously injected in the base of the tail with 100 μL/body of the equal amount-mixed solution (emulsion) of a 4 mg/mL of bovine type 2 collagen solution (Collagen Research Center) and a complete freund's adjuvant (DIFCO Inc.) to carry out an additional immunization. […] Symptoms of arthritis in day 0, day 4, day 7, day 11, and day 14 were scored with the naked eye (0: No change, 1: Swelling of a finger, 2: Swelling of two fingers or more, 3: Swelling of instep, 4: Swelling of all fingers besides swelling extending to wrist/ankle), and a total of four limbs was obtained as a point of an individual (maximum 16 points).

[3] = tested on: mouse collagen-induced arthritis model; test: Mouse collagen-induced arthritis model (therapeutic effect), Test Example 8; assay type: in vivo; settings: therapeutic administration, FIG. 3
Protocol: as §1

MRL/lpr mice = test: Mouse systemic lupus erythematosus model; assay type: in vivo; settings: at the doses used in the test
Protocol: MRL/lpr mice (Japan SLC, Inc.) were used to evaluate drug efficacy in this test, since the mice are widely used as mice models in which symptoms of autoimmune diseases similar to human systemic lupus erythematosus spontaneously express. A grouping was carried out on the basis of swellings of lymph nodes in submaxilla and axilla at 14 weeks old, and once-daily oral administration was continued for 42 days from the day of grouping, with vehicle or Example Compound 13 suspension. Urea nitrogen concentration and anti-dsDNA antibody concentration in peripheral blood at the final administration day were measured.

[4] = target: T1, phosphorylated BTK protein in Ramos cells (Homo sapiens, UniProt Q06187); test: Inhibitory activity against B-cell activation using Ramos cells (BTK phosphorylation); assay type: cell-based; settings: anti-human IgM stimulation, pY223 Western blotting, read-out: Phosphorylated BTK inhibitory concentration (IC50, (nM))
T1 construct: endogenous in cells; host or cells: Ramos cells
T1 sequence (Q06187 whole entry): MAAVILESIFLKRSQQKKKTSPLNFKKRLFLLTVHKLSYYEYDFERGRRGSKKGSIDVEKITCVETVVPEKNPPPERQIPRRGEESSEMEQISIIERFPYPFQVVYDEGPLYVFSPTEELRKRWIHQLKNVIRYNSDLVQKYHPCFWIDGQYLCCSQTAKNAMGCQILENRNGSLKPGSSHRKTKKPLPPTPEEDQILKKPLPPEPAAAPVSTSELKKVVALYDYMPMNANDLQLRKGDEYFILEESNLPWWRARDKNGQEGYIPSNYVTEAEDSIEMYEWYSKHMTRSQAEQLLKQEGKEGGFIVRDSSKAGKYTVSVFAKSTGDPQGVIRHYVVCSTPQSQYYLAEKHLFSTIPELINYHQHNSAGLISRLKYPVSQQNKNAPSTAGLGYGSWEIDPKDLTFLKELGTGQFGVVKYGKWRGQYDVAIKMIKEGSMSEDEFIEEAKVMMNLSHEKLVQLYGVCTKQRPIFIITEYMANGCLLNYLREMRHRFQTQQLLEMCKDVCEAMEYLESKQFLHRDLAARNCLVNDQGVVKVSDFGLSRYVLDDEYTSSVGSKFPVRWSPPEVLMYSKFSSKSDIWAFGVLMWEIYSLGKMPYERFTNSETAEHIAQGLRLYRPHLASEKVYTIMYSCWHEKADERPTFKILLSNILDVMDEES
Protocol: The human B-cell lymphoma-derived cell line, Ramos cells were suspended in RPMI1640 medium, and then the cells were inoculated in a culture plate at a concentration of 2.0×10^6 (cells/well). The cells were cultured in a CO2 incubator (Sanyo Electric Biomedical Co., Ltd.) at 37° C. for 12 hours. […] Then, 10 minutes of stimulation was provided with Goat F(ab′)2 anti-human IgM antibody-UNLB (southern biotech Corp.). Thereafter, the cells were harvested, and 50 μL of (a cell extract (NP-40; Invitrogen, Inc.) containing 1×protease inhibitor (Hoffmann-La Roche AG) and 1×phosphatase cocktail inhibitor (Sigma-Aldrich Co.)) was added to the cell pellets. The cell pellets were left to stand for 10 minutes on ice. The amount of protein in the collected cell extract was quantitatively analyzed by a DC protein assay (Bio-Rad Laboratories, Inc.), and 20 μg of proteins per lane was applied to a Criterion TGX™ (Bio-Rad Laboratories, Inc.). After electrophoresis was performed, Western blotting was performed with Trans-Blot™ Turbo™ (Bio-Rad Laboratories, Inc.). Thereafter, phosphorylated BTK protein and BTK protein were detected with LAS4000 (GE Healthcare, Inc.) with a BTK phosphor (pY223) antibody (EPITOMICS Inc.) and a BTK antibody (Abcam, plc.).

TNP-IgE mice = test: Mouse antigen-induced dermatitis model; assay type: in vivo; settings: 30 minutes before allergen, 2 hours after antigen
Text: Type I allergy models accompanied by a skin symptom (a dermatitis model) were produced, with TNP-IgE mice (CLEA Japan, Inc.). The mice are genetically modified BALB/c mice that constantly produce an IgE specific to hapten TNP (trinitrophenol) which is widely used as an allergen (antigen). It is possible to induce an allergic reaction in the mice, only by administering an allergen, without carrying out an immunization. […] An average value of thickening values of both ears was obtained as a value of an individual (provided that a previous value before the allergen application was 0 mm).
Ear swelling control ratio (%) was calculated by the following formula. Ear swelling control ratio (%)=(1−(Average value of ear thickening of compound administered group)/(Average value of ear thickening of vehicle administered group))×100

[5] = Rattus norvegicus, RBL-2H3, RBL-2H3 cells
[6] = repeated administration for two weeks

IC50 (RBL-2H3 cells; RBL-2H3 cells) [nM] | IC50 (RBL-2H3 cells; [5]) [nM] | IC50 [4] [nM] | Structure (SMILES) | loose bowel [1, 6] | rat body weight increase compared with the vehicle-administered group [1, 6] | arthritis score [2] | arthritis score [3] | Relative body weight change ratio (%) ([1]; 750 mg/kg orally once a day, two weeks) | remarkable decrease in body weight (MRL/lpr mice) | Ear swelling control ratio (%) (TNP-IgE mice; 1 mg/kg oral) | Ear swelling control ratio (%) (TNP-IgE mice; 3 mg/kg oral)
348 | ~350 | – | C=CC(=O)N1CCC[C@@H](n2nc(-c3ccc(Oc4ccccc4)cc3)c3c(N)ncnc32)C1 [Reference compound 1, (R)-1-(3-(4-amino-3-(4-phenoxyphenyl)-1H-pyrazolo[3,4-d]pyrimidin-1-yl)piperidin-1-yl)prop-2-en-1-one, reference compound] | individuals suffering from loose bowel were recognized | very small | delayed the further increase of the increased arthritis score | delayed the further increase of the increased arthritis score | – | – | – | –
– | 26 | 0.25 | C=CC(=O)N1CCC[C@@H](n2nc(C(=O)Nc3nc4ccccc4o3)c3c(N)ncnc32)C1 [Example 13, (R)-1-(1-acryloylpiperidin-3-yl)-4-amino-N-(benzo[d]oxazol-2-yl)-1H-pyrazolo[3,4-d]pyrimidine-3-carboxamide] | – | – | – | – | 79.1 | not recognized | 54 | 79
